{"source": "patent US20240148821A1", "about": "“PHARMACEUTICAL USE OF CYCLIC PEPTIDE COMPOUND” (CHUGAI SEIYAKU KABUSHIKI KAISHA, priority 2021, published 2024)", "key": {"[1]": {"biological_target": "protein-protein interaction between Kras and SOS1 (biotin-tagged human Kras loaded with GDP, His-tagged human SOS1) (Homo sapiens (Human), UniProt P01116, G12D)", "assay": "Protein-protein interaction inhibition between Kras and SOS1 (KrasG12D-SOS PPI) using AlphaScreen;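 further: kras produced in E. coli, Ni-coupled donor beads and streptavidin acceptor beads, excitation 680 nm with emission detected at 520–620 nm via singlet oxygen transfer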", "type": "biochemical", "details": "AlphaScreen; biotin-tagged human Kras loaded with GDP, His-tagged human SOS1; read-out: KRAS G12D-SOS PPI IC50"}, "[2]": {"test_system": "Human pancreatic cancer cell line AsPC-1 (G12D mutation Kras)", "assay": "AsPC-1 cell growth inhibition (AsPC-1 CGI)", "type": "cell-based", "details": "read-out: AsPC-1 cell growth inhibition, 50% growth inhibitory concentration (IC50 value); 96 hours, CellTiter-Glo, values classified in ranges"}}, "note": "Numbered stars: 1 amine (or outer) side, 2 acyl side, 3 side chain; on linkers, the order of the positions; unused ones are H or OH. Bridge positions count the residues as written; N and C are the ends. Square brackets hold non-standard residues; d marks the D form. Peptide text beside a SMILES is read from it. * marks the point of attachment. hPhe(3-Cl-4-CF3) = N[C@@H](CCc1ccc(C(F)(F)F)c(Cl)c1)C(=O)O; hPhe(3-F,4-CF3) = N[C@@H](CCc1ccc(C(F)(F)F)c(F)c1)C(=O)O; NMePhe(4-Cl) = CN[C@@H](Cc1ccc(Cl)cc1)C(=O)O; NMePhe(4-Me) = CN[C@@H](Cc1ccc(C)cc1)C(=O)O; NMeNle(6-CHF2) = CN[C@@H](CCCCC(F)F)C(=O)O; NMeGly(cPent) = CN[C@H](C(=O)O)C1CCCC1; dβ3hPip = O=C(C[C@H]1CCCCN1[*:1])[*:2]; NMeCha = CN[C@@H](CC1CCCCC1)C(=O)O; NMeAhp(2) = CCCCC[C@H](NC)C(=O)O; NMeF = CN[C@@H](Cc1ccccc1)C(=O)O; NMeI = CC[C@H](C)[C@H](NC)C(=O)O; NMeD = CN[C@@H](CC(=O)O)C(=O)O; NMeL = CN[C@@H](CC(C)C)C(=O)O; NMeNva = CCC[C@H](NC)C(=O)O; NMeV = CN[C@H](C(=O)O)C(C)C; d(β3hA) = C[C@@H](N)CC(=O)O; NMeA = CN[C@@H](C)C(=O)O; NMeAib = CNC(C)(C)C(=O)O; Piperidide = C1CCN(*)CC1; Pyrrolidide = C1CCN(*)C1; Ac5c = NC1(C(=O)O)CCCC1; Aze = O=C(O)[C@@H]1CCN1; NEtG = CCNCC(=O)O; Sar = CNCC(=O)O"}
{"smiles": "CC[C@H](C)[C@@H]1NC(=O)[C@H](CC(C)C)N(C)C(=O)C[C@@H](C(=O)N2CCCC2)N(C)C(=O)[C@H](C2CCCC2)N(C)C(=O)C2(CCCC2)NC(=O)[C@@H]2CCCN2C(=O)[C@H](CCc2ccc(C(F)(F)F)c(F)c2)NC(=O)CN(C)C(=O)[C@H](CC2CCCCC2)N(C)C(=O)[C@@H]2CCN2C(=O)[C@H](C)N(C)C1=O", "note": "[Compound 1091] ([NMeL]I[NMeA][Aze][NMeCha][Sar][hPhe(3-F,4-CF3)]P[Ac5c][NMeGly(cPent)][NMeD]-Pyrrolidide; lactam N-11)", "values": [{"measurement": "IC50", "setting": "[1]", "value": 1, "unit": "nM"}, {"measurement": "IC50", "setting": "[2]", "value": "≤ 20", "unit": "nM"}]}
{"smiles": "CC[C@H](C)[C@@H]1NC(=O)[C@H](CC(C)C)N(C)C(=O)C[C@H]2CCCCN2C(=O)[C@H](CC(C)C)NC(=O)C(C)(C)N(C)C(=O)[C@H](CC(C)C)NC(=O)[C@H](CCc2ccc(C(F)(F)F)c(F)c2)NC(=O)CN(C)C(=O)[C@H](CC2CCCCC2)N(C)C(=O)CN(C)C(=O)CN(C)C1=O", "note": "[Compound 1095] (cyclo(I[Sar][Sar][NMeCha][Sar][hPhe(3-F,4-CF3)]L[NMeAib]L[dβ3hPip][NMeL]))", "values": [{"measurement": "IC50", "setting": "[1]", "value": 46, "unit": "nM"}, {"measurement": "IC50", "setting": "[2]", "value": "> 500", "unit": "nM"}]}
{"smiles": "CC[C@H](C)[C@@H]1NC(=O)[C@H](C)N(C)C(=O)C[C@@H](C)NC(=O)[C@H](C(C)C)N(C)C(=O)[C@H](Cc2ccccc2)N(C)C(=O)[C@H](CC(C)C)N(C)C(=O)[C@H](CCc2ccc(C(F)(F)F)c(F)c2)NC(=O)CN(C)C(=O)[C@H](Cc2ccc(Cl)cc2)N(C)C(=O)CN(C)C(=O)CN(C)C1=O", "note": "[Compound 1105] (cyclo(I[Sar][Sar][NMePhe(4-Cl)][Sar][hPhe(3-F,4-CF3)][NMeL][NMeF][NMeV][d(β3hA)][NMeA]))", "values": [{"measurement": "IC50", "setting": "[1]", "value": 21, "unit": "nM"}, {"measurement": "IC50", "setting": "[2]", "value": "> 500", "unit": "nM"}]}
{"smiles": "CCCCC[C@H]1C(=O)N[C@@H]([C@@H](C)CC)C(=O)N[C@@H](C)C(=O)N2CC[C@H]2C(=O)N(C)[C@@H](CC2CCCCC2)C(=O)N(C)CC(=O)N[C@@H](CCc2ccc(C(F)(F)F)c(F)c2)C(=O)N2CCC[C@H]2C(=O)NC2(CCCC2)C(=O)N(C)[C@@H](C2CCCC2)C(=O)N(C)[C@H](C(=O)N(C)C)CC(=O)N1C", "note": "[Compound 1117] ([NMeAhp(2)]IA[Aze][NMeCha][Sar][hPhe(3-F,4-CF3)]P[Ac5c][NMeGly(cPent)][NMeD]-NMe2; lactam N-11)", "values": [{"measurement": "IC50", "setting": "[1]", "value": 2.2, "unit": "nM"}, {"measurement": "IC50", "setting": "[2]", "value": "≤ 20", "unit": "nM"}]}
{"smiles": "CC[C@H](C)[C@@H]1NC(=O)[C@H](CC(C)C)N(C)C(=O)C[C@@H](C(=O)N(C)C)N(C)C(=O)[C@H]([C@@H](C)CC)N(C)C(=O)C2(CCCC2)NC(=O)[C@@H]2CCCN2C(=O)[C@H](CCc2ccc(C(F)(F)F)c(Cl)c2)NC(=O)CN(CC)C(=O)[C@H](Cc2ccc(C)cc2)N(C)C(=O)[C@@H]2CCN2C(=O)[C@H](C)N(C)C1=O", "note": "[Compound 1120] ([NMeL]I[NMeA][Aze][NMePhe(4-Me)][NEtG][hPhe(3-Cl-4-CF3)]P[Ac5c][NMeI][NMeD]-NMe2; lactam N-11)", "values": [{"measurement": "IC50", "setting": "[1]", "value": 2.5, "unit": "nM"}, {"measurement": "IC50", "setting": "[2]", "value": "≤ 20", "unit": "nM"}]}
{"smiles": "CC[C@H](C)[C@@H]1NC(=O)[C@H](CC(C)C)N(C)C(=O)C[C@@H](C(=O)N2CCCCC2)N(C)C(=O)[C@H](CCCCC(F)F)N(C)C(=O)C2(CCCC2)NC(=O)[C@@H]2CCCN2C(=O)[C@H](CCc2ccc(C(F)(F)F)c(Cl)c2)NC(=O)CN(C)C(=O)[C@H](CC2CCCCC2)N(C)C(=O)[C@@H]2CCN2C(=O)[C@H](C)N(C)C1=O", "note": "[Compound 1123] ([NMeL]I[NMeA][Aze][NMeCha][Sar][hPhe(3-Cl-4-CF3)]P[Ac5c][NMeNle(6-CHF2)][NMeD]-Piperidide; lactam N-11)", "values": [{"measurement": "IC50", "setting": "[1]", "value": 180, "unit": "nM"}, {"measurement": "IC50", "setting": "[2]", "value": "> 500", "unit": "nM"}]}
{"smiles": "CC[C@H](C)[C@@H]1NC(=O)[C@H](C)N(C)C(=O)C[C@@H](C(=O)N2CCCCC2)N(C)C(=O)[C@H](C(C)C)N(C)C(=O)C2(CCCC2)NC(=O)[C@H](Cc2ccccc2)NC(=O)[C@H](CCc2ccc(C(F)(F)F)c(Cl)c2)NC(=O)CN(C)C(=O)[C@H](CC2CCCCC2)N(C)C(=O)CN(C)C(=O)CN(C)C1=O", "note": "[Compound 1125] ([NMeA]I[Sar][Sar][NMeCha][Sar][hPhe(3-Cl-4-CF3)]F[Ac5c][NMeV][NMeD]-Piperidide; lactam N-11)", "values": [{"measurement": "IC50", "setting": "[1]", "value": 2.5, "unit": "nM"}, {"measurement": "IC50", "setting": "[2]", "value": "> 500", "unit": "nM"}]}
{"smiles": "CCC[C@H]1C(=O)N[C@@H]([C@@H](C)CC)C(=O)N(C)[C@@H](C)C(=O)N2CC[C@H]2C(=O)N(C)[C@@H](CC2CCCCC2)C(=O)N(C)CC(=O)N[C@@H](CCc2ccc(C(F)(F)F)c(Cl)c2)C(=O)N2CCC[C@H]2C(=O)NC2(CCCC2)C(=O)N(C)[C@@H]([C@@H](C)CC)C(=O)N(C)[C@H](C(=O)N2CCCCC2)CC(=O)N1C", "note": "[Compound 1132] ([NMeNva]I[NMeA][Aze][NMeCha][Sar][hPhe(3-Cl-4-CF3)]P[Ac5c][NMeI][NMeD]-Piperidide; lactam N-11)", "values": [{"measurement": "IC50", "setting": "[1]", "value": 1.3, "unit": "nM"}, {"measurement": "IC50", "setting": "[2]", "value": "≤ 20", "unit": "nM"}]}
